Drawing on US12252524B2, “GIP/GLP1 co-agonist compounds” (Eli Lilly and Company, priority 2018, dated 2025), this text covers Ki and EC50 for two molecules.

The target in one test is T1, human Gcg receptor (Homo sapiens, UniProt P47871).
T1 construct: expressed in transfected cells; crude membranes
As to the kind of experiment: [125I]-Glucagon binding (SPA), human Gcg receptor. To be noted: read-out: hGLcgR Ki, nM (SEM, n). In short, it runs like this: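 Scintillation counts are taken after membranes and WGA beads incubate and settle for 12 hours at room temperature. Buffer is 25 mM HEPES, pH 7.4, with CaCl2, MgCl2, bacitracin and Tween-20. Ki values, from four-parameter IC50 fits, are geometric means over independent days.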

A further test addresses T2, human GIP receptor (Homo sapiens, UniProt P48546).
T2 construct: expressed in transfected cells; crude membranes
T2 sequence (P48546 22-466): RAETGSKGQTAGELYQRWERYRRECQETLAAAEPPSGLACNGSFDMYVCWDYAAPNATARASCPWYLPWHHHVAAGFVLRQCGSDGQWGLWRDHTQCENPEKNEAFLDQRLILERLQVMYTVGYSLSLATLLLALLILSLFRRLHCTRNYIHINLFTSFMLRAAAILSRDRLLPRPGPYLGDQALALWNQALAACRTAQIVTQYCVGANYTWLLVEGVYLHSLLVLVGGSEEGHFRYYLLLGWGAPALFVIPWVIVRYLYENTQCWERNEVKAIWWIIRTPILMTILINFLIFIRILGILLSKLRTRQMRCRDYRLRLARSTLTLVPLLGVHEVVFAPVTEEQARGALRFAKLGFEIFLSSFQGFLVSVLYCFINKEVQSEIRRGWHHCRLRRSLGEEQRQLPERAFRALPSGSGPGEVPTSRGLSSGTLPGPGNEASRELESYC
Kind of test: [125I]-GIP binding (SPA), human GIP receptor. To be noted: read-out: hGIPR Ki, nM (SEM, n).

Test [1] addresses human GLP-1 receptor (GLP-1R) (Homo sapiens, UniProt P43220). Kind of test: cAMP pharmacological functional assay in presence of casein, hGLP-1R. The format is cell-based. To be noted: HEK293 cells expressing hGLP-1R, 0.1% Casein, geometric mean; read-out: hGLP1R cAMP Rel EC50 nM (SEM, n).
The target of the next test is human GLP-1R (Homo sapiens, UniProt P43220). As to the kind of experiment: [125I]-GLP-1 binding (SPA), human GLP-1 receptor. The arrangement: expressed in transfected cells; crude membranes. As to conditions: read-out: hGLP1R Ki, (nM) (SEM, n). In outline: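 Crude-membrane binding assay; one membrane prep included 1 mM MgCl2 and 25 units/ml DNAse I during lysis. Assay buffer at pH 7.4 contains 0.1% (w/v) bacitracin and 0.003% (w/v) TWEEN-20. Ki is reported as geometric mean.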

Test [2] concerns the target T3, gastric inhibitory peptide receptor (GIPR) (Homo sapiens, UniProt P48546).
T3 sequence (P48546 22-466): T2 sequence (P48546 22-466)
As to the kind of experiment: cAMP pharmacological functional assay in presence of casein, hGIPR. To be noted: HEK293 cells expressing hGIPR, 0.1% Casein, geometric mean; read-out: hGIPR cAMP Rel EC50 nM (SEM, n). The format is cell-based.

Numbered stars: 1 amine (or outer) side, 2 acyl side, 3 side chain; on linkers, the order of the positions; unused ones are H or OH. Square brackets hold non-standard residues; d marks the D form. Side chains are listed from the residue outwards. Peptide text beside a SMILES is read from it. * marks the point of attachment. C20 diacid = O=C(O)CCCCCCCCCCCCCCCCCCC(=O)*; γGlu = O=C(O)[C@H](CCC(=O)[*:2])N[*:1]; AEEA = NCCOCCOCC(=O)O; Aib = CC(C)(N)C(=O)O

T1 sequence (P47871 26-477): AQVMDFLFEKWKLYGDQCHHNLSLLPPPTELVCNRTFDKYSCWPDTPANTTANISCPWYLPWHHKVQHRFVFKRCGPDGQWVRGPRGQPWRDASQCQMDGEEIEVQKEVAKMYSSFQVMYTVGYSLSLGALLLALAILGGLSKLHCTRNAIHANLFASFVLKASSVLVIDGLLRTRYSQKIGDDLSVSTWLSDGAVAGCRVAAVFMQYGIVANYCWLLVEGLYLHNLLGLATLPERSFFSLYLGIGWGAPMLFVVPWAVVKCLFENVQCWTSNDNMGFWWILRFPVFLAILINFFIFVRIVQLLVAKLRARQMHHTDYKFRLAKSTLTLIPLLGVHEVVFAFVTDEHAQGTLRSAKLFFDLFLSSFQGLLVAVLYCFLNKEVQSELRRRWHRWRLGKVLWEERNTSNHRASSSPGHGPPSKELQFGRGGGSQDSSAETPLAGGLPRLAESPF
Sequence of human GLP-1R (P43220 24-463): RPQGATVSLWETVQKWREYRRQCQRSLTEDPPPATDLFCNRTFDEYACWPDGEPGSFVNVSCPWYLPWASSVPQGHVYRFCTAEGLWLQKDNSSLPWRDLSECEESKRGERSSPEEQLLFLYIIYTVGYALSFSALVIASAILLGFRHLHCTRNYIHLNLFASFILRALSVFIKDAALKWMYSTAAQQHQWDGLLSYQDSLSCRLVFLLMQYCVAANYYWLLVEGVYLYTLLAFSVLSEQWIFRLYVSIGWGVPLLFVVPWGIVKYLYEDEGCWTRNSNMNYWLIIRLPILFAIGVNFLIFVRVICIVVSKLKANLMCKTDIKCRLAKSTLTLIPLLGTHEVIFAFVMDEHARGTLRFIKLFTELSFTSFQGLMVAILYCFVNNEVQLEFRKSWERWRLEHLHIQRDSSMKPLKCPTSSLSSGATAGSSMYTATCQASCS
Sequence of human GLP-1 receptor (GLP-1R) (P43220 24-463): as above

Regarding `CC[C@H](C)[C@H](NC(=O)[C@H](CC(C)C)NC(=O)[C@H](Cc1ccc(O)cc1)NC(=O)[C@H](CCC(=O)O)NC(=O)[C@@H](NC(=O)[C@H](Cc1ccccc1)NC(=O)[C@H](C)NC(=O)[C@H](CCC(N)=O)NC(=O)[C@H](CCC(N)=O)NC(=O)[C@H](C)NC(=O)[C@H](CCCCNC(=O)COCCOCCNC(=O)COCCOCCNC(=O)CC[C@H](NC(=O)CCCCCCCCCCCCCCCCCCC(=O)O)C(=O)O)NC(=O)[C@H](CCCCN)NC(=O)[C@H](CC(=O)O)NC(=O)[C@H](CC(C)C)NC(=O)[C@H](CC(C)C)NC(=O)[C@@H](NC(=O)[C@H](CO)NC(=O)[C@H](Cc1ccc(O)cc1)NC(=O)[C@H](CC(=O)O)NC(=O)[C@H](CO)NC(=O)[C@@H](NC(=O)[C@H](Cc1ccccc1)NC(=O)[C@@H](NC(=O)CNC(=O)[C@H](CCC(=O)O)NC(=O)C(C)(C)NC(=O)[C@@H](N)Cc1ccc(O)cc1)[C@@H](C)O)[C@@H](C)O)[C@@H](C)CC)[C@@H](C)CC)C(=O)N[C@@H](CCC(=O)O)C(=O)NCC(=O)NCC(=O)N1CCC[C@H]1C(=O)N[C@@H](CO)C(=O)N[C@@H](CO)C(=O)NCC(=O)N[C@@H](C)C(=O)N1CCC[C@H]1C(=O)N1CCC[C@H]1C(=O)N1CCC[C@H]1C(=O)N[C@@H](CO)C(N)=O` [Example 254] (H-Y[Aib]EGTFTSDYSILLDKK([AEEA-AEEA-γGlu-C20 diacid])AQQAFIEYLIEGGPSSGAPPPS-NH2), the Ki on human Gcg receptor was 148 nM; at human GIP receptor, 0.108 nM; at human GLP-1R it was 2.58 nM. For the same molecule, the EC50 in test [1] amounted to 0.0553 nM; in test [2], 0.215 nM.
The matching figures for `CC[C@H](C)[C@H](NC(=O)[C@H](CCCCN)NC(=O)[C@H](CC(=O)O)NC(=O)[C@H](CC(C)C)NC(=O)[C@H](CC(C)C)NC(=O)[C@H](CCCCNC(=O)COCCOCCNC(=O)COCCOCCNC(=O)CC[C@H](NC(=O)CCCCCCCCCCCCCCCCCCC(=O)O)C(=O)O)NC(=O)[C@H](CO)NC(=O)[C@H](Cc1ccc(O)cc1)NC(=O)[C@H](CC(=O)O)NC(=O)[C@H](CO)NC(=O)[C@@H](NC(=O)[C@H](Cc1ccccc1)NC(=O)[C@@H](NC(=O)CNC(=O)[C@H](CCC(=O)O)NC(=O)C(C)(C)NC(=O)[C@@H](N)Cc1ccc(O)cc1)[C@@H](C)O)[C@@H](C)O)C(=O)N[C@@H](C)C(=O)N[C@@H](CCC(N)=O)C(=O)NC(C)(C)C(=O)N[C@@H](C)C(=O)N[C@@H](Cc1ccccc1)C(=O)N[C@H](C(=O)N[C@@H](CCC(=O)O)C(=O)N[C@@H](Cc1ccc(O)cc1)C(=O)N[C@@H](CC(C)C)C(=O)N[C@H](C(=O)N[C@@H](CCC(=O)O)C(=O)NCC(=O)NCC(=O)N1CCC[C@H]1C(=O)N[C@@H](CO)C(=O)N[C@@H](CO)C(=O)NCC(=O)N[C@@H](C)C(=O)N1CCC[C@H]1C(=O)N1CCC[C@H]1C(=O)N1CCC[C@H]1C(=O)N[C@@H](CO)C(N)=O)[C@@H](C)CC)[C@@H](C)CC` [Example 25] (H-Y[Aib]EGTFTSDYSK([AEEA-AEEA-γGlu-C20 diacid])LLDKIAQ[Aib]AFIEYLIEGGPSSGAPPPS-NH2): 81.1 nM, 0.179 nM, 4.8 nM, 0.356 nM and 0.23 nM.

As usually defined, the Ki is the equilibrium dissociation constant of an inhibitor or competing ligand from its target. As a reminder, the EC50 is the concentration at which the effect is half-maximal.
